Results taken from PMC10469688, “Comparative pharmacokinetics and safety evaluation of high dosage regimens of Andrographis paniculata aqueous extract after single and multiple oral administration in healthy participants” (Frontiers in Pharmacology, 2023).
Where two headings read alike, the source gives them in different places.

Key:
[1] = Plasma pharmacokinetics after single and multiple oral administration of A. paniculata aqueous extract capsules in healthy participants (HPLC-MS/MS, non-compartmental analysis); format: in vivo, human; set-up: MRT: unit: h; Cmax: unit: ng/mL
Experimental: (§1) An opened-label, two-dosage, single- and multiple-oral dosing, single center, phase I safety and pharmacokinetic study was conducted in healthy participants while they were under a fasting condition. […] Two weeks prior to the beginning of the clinical study, the volunteers were advised to abstain from other dietary supplements, herbal products, or any concomitant medicines. During the period of the study, no other medications were allowed. All participants fasted overnight for at least 8 h before drug administration. The study conducted a single-dose investigation on day 1 by oral administering A. paniculata extract capsules once in both groups. Twelve participants in group 1 received 3 capsules orally (equivalent to 60 mg of andrographolide) with 240 mL of water, while another twelve participants in group 2 received 6 capsules (equivalent to 120 mg of andrographolide). This was followed by serial blood sampling for up to 24 h after dosing. For blood collection, 6 mL of venous blood in EDTA tube was collected via a forearm vein catheter at each time point including pre-dose (0 h), and post-dose after oral administration (T 0.167, 0.333, 0.5, 0.75, 1, 1.5, 2, 4, 6, 8, 10, 12 and 24 h). Subsequently, observation of elimination continued until 48 h post-dose to ensure complete excretion of the major active diterpenoids through urine. Urine samples were collected at day 0 (the day prior to dosing) and day 1–2 (T 0–4, 4–8, 8–12,12–24, 24–32, 32–40, and 40–48 h after dosing). The study then proceeded to investigate multiple doses in both groups by administering continuous oral doses from day 3 until the morning of day 5. (dosing at T48, 56, 64, 72, 80, 88, and 96 h). In group 1, three capsules were administered orally before meals, three times a day (3 × 3 capsules at 8-h intervals, calculated as 180 mg/day of andrographolide); whereas in group 2, six capsules were administered daily, three times a day (6 × 3 capsules at 8-h intervals, calculated as 360 mg/day of andrographolide). For serial blood sampling of multiple doses, 6 mL of blood samples were collected starting in the morning of day 5 (sampling timepoints T 96, 96.167, 96.333, 96.5, 96.75, 97, 97.5, 98, 100, 102, and 104 h post dose).
(§2) All collected blood samples were centrifuged at 4,000 rpm, 4^οC, for 5 min. Plasma was collected and stored in cryotubes at −70^οC until analysis. Urine was kept as 10 mL aliquot samples at each time point and stored at −70^οC until analysis. Extraction was performed by protein precipitation method as previously reported ([Songvut et al., 2023]). Briefly, 50 µL of either a plasma or urine sample was mixed with 200 µL of methanol containing an internal standard (IS) of digoxin (50 ng/mL). Pretreated samples were vortexed for 10 min and were then centrifuged at 12,000 rpm, 4°C, for 10 min. The supernatants were filtered through a 0.2 µm PVDF membrane and were subsequently transferred to vials for HPLC-MS/MS analysis.
(§3) Hydrolysis of the glucuronidated and sulfated conjugates was conducted by enzymatic incubation as our previous published method ([Songvut et al., 2023]). To analyze the metabolic conjugations, 50 μL of either a plasma or urine sample was pre-incubated at 37^οC with 50 µL of either of β-glucuronidase in sodium phosphate buffer (pH 6.8) for 30 min, or sulfatase in sodium acetate buffer (pH 5) for 2 h. IS (50 ng/mL) was then added along with 150 μL of methanol to precipitate protein. The extracted samples were then vortexed and centrifuged at 12,000 rpm, 4^οC, for 10 min. The supernatants were collected by filtering through a 0.2-µm PVDF membrane before HPLC-MS/MS injection.
(§4) Analysis for the concentrations of targeted compounds in plasma and urine samples were carried out using HPLC-MS/MS at the Laboratory of Pharmacology, Chulabhorn Research Institute, Bangkok, Thailand. The quantitative determination was performed according to a previously validated method ([Songvut et al., 2023]). […]

[2] = Cumulative urinary excretion after single oral administration of A. paniculata aqueous extract capsules in healthy participants; format: in vivo, human; details: urine T 0–48 h
Experimental: as §1, §2, §3, §4

[3] = single oral dose equivalent to 60 mg andrographolide, n = 12, mean ± SD
[4] = single oral dose equivalent to 120 mg andrographolide, n = 11, mean ± SD
[5] = multiple oral doses 60 mg × 3 times/day of andrographolide, n = 12, mean ± SD
[6] = multiple oral doses 60 mg × 3 times/day of andrographolide, n = 12, median [IQR]
[7] = multiple oral doses 120 mg × 3 times/day of andrographolide, n = 11, mean ± SD
[8] = multiple oral doses 120 mg × 3 times/day of andrographolide, n = 11, median [IQR]
[9] = single oral dose equivalent to 60 mg andrographolide, n = 12, median [IQR]
[10] = single oral dose equivalent to 120 mg andrographolide, n = 11, median [IQR]

Question: Which CL/F ([1]; human, plasma, multiple oral doses 60 mg × 3 times/day of andrographolide, n = 12, mean ± SD) does the source give for `C=C1CC[C@@H]2[C@](C)(CO)[C@H](O)CC[C@@]2(C)[C@@H]1CCC1=CCOC1=O` [14-Deoxyandrographolide, 14-deoxyandrographolide] here?
Answer: The CL/F was 255 mL/min/kg.

Question: And the AUC(0-t) ([1]; human, plasma, multiple oral doses 60 mg × 3 times/day of andrographolide, n = 12, mean ± SD, read-out: AUC(0–8h))?
Answer: Its AUC(0-t) is 11.3 ± 3.3 ng·h/mL.

Question: And the MRT ([1]; human, plasma, multiple oral doses 60 mg × 3 times/day of andrographolide, n = 12, mean ± SD, read-out: MRT)?
Answer: The MRT was 1.5 ± 0.11 h.

Question: And the Vd/F ([1]; human, plasma, multiple oral doses 60 mg × 3 times/day of andrographolide, n = 12, mean ± SD, read-out: Vd/F)?
Answer: Its Vd/F is 5.4 ± 3.1 L/kg.

Question: And the half-life ([1]; human, plasma, multiple oral doses 60 mg × 3 times/day of andrographolide, n = 12, median [IQR])?
Answer: Its half-life is 0.23 h.

Question: And the Tmax ([1]; human, plasma, multiple oral doses 60 mg × 3 times/day of andrographolide, n = 12, median [IQR], read-out: Tmax)?
Answer: Its Tmax is 1 h.

Question: And the CL/F ([1]; human, plasma, multiple oral doses 120 mg × 3 times/day of andrographolide, n = 11, mean ± SD)?
Answer: Its CL/F is 302 mL/min/kg.

Question: What about the AUC(0-t) ([1]; human, plasma, multiple oral doses 120 mg × 3 times/day of andrographolide, n = 11, mean ± SD, read-out: AUC(0–8h)) of the same compound?
Answer: The AUC(0-t) was 20 ± 9.1 ng·h/mL.

Question: What about the MRT ([1]; human, plasma, multiple oral doses 120 mg × 3 times/day of andrographolide, n = 11, mean ± SD, read-out: MRT) of the same compound?
Answer: The MRT was 1.6 ± 0.07 h.

Question: What about the Vd/F ([1]; human, plasma, multiple oral doses 120 mg × 3 times/day of andrographolide, n = 11, mean ± SD, read-out: Vd/F) of the same compound?
Answer: The Vd/F was 5.7 ± 2.8 L/kg.

Question: And the half-life ([1]; human, plasma, multiple oral doses 120 mg × 3 times/day of andrographolide, n = 11, median [IQR])?
Answer: Its half-life is 0.21 h.

Question: And the Tmax ([1]; human, plasma, multiple oral doses 120 mg × 3 times/day of andrographolide, n = 11, median [IQR], read-out: Tmax)?
Answer: Its Tmax is 1 h.

Question: And the Tmax ([1]; human, plasma, single oral dose equivalent to 60 mg andrographolide, n = 12, median [IQR], read-out: Tmax)?
Answer: The Tmax was 1 h.

Question: And the CL/F ([1]; human, plasma, single oral dose equivalent to 120 mg andrographolide, n = 11, mean ± SD)?
Answer: The CL/F was 293 mL/min/kg.

Question: What about the AUC(0-inf) ([1]; human, plasma, single oral dose equivalent to 120 mg andrographolide, n = 11, mean ± SD, read-out: AUC(0-inf)) of the same compound?
Answer: The AUC(0-inf) was 20.5 ± 8.8 ng·h/mL.

Question: And the AUC(0-t) ([1]; human, plasma, single oral dose equivalent to 120 mg andrographolide, n = 11, mean ± SD, read-out: AUC(0–24h))?
Answer: Its AUC(0-t) is 20.5 ± 8.8 ng·h/mL.

Question: And the MRT ([1]; human, plasma, single oral dose equivalent to 120 mg andrographolide, n = 11, mean ± SD, read-out: MRT)?
Answer: Its MRT is 1.5 ± 0.08 h.

Question: What about the Vd/F ([1]; human, plasma, single oral dose equivalent to 120 mg andrographolide, n = 11, mean ± SD, read-out: Vd/F) of the same compound?
Answer: Its Vd/F is 5.5 ± 2.9 L/kg.

Question: What about the half-life ([1]; human, plasma, single oral dose equivalent to 120 mg andrographolide, n = 11, median [IQR]) of the same compound?
Answer: The half-life was 0.21 h.

Question: And the Tmax ([1]; human, plasma, single oral dose equivalent to 120 mg andrographolide, n = 11, median [IQR], read-out: Tmax)?
Answer: Its Tmax is 1 h.

Question: What about the Cmax ([1]; human, multiple oral doses 60 mg × 3 times/day of andrographolide, plasma T 0–8 h, n = 12, mean ± SD, read-out: Cmax) of the same compound?
Answer: Its Cmax is 6.6 ± 1.9 ng/mL.

Question: What about the Cmax ([1]; human, multiple oral doses 120 mg × 3 times/day of andrographolide, plasma T 0–8 h, n = 11, mean ± SD, read-out: Cmax) of the same compound?
Answer: The Cmax was 11.3 ± 5.5 ng/mL.

Question: And the Cmax ([1]; human, single oral dose equivalent to 60 mg andrographolide, plasma T 0–24 h, n = 12, mean ± SD, read-out: Cmax)?
Answer: The Cmax was 4.2 ± 3.4 ng/mL.

Question: What about the Cmax ([1]; human, single oral dose equivalent to 120 mg andrographolide, plasma T 0–24 h, n = 11, mean ± SD, read-out: Cmax) of the same compound?
Answer: The Cmax was 11.6 ± 5.4 ng/mL.

Question: What about the Cumulative urine [2, 3] of the same compound?
Answer: The Cumulative urine was 108 ± 36.5 µg.

Question: What about the Cumulative urine [2, 4] of the same compound?
Answer: Its Cumulative urine is 199 ± 77.3 µg.

Question: For `C=C1CCC2C(C)(CO)C(O)CCC2(C)C1C=CC1=CCOC1=O` (stereo not shown) [14-Deoxy-11,12-didehydroandrographolide, 14-deoxy-11, 12-didehydroandrographolide], which “AUC(0–8h)” value [1, 5] is on record?
Answer: The value was 329 ± 55.5 ng·h/mL.

Question: What about the Cl/F [1, 5] of the same compound?
Answer: Its Cl/F is 16.3 ± 3.83 mL/min/kg.

Question: And the MRT [1, 5]?
Answer: Its MRT is 3.0 ± 0.61 h.

Question: And the Vd/F [1, 5]?
Answer: The Vd/F was 2.6 ± 1.8 L/kg.

Question: What about the Half life [1, 6] of the same compound?
Answer: The Half life was 1.6[0.80] h.

Question: What about the Tmax [1, 6] of the same compound?
Answer: The Tmax was 1.0[0.20] h.

Question: What about the Cmax ([1]; multiple oral doses 60 mg × 3 times/day of andrographolide, plasma T 0–8 h, n = 12, mean ± SD) of the same compound?
Answer: Its Cmax is 137 ± 29.3 ng/mL.

Question: What about the “AUC(0–8h)” value [1, 7] of the same compound?
Answer: The value was 693 ± 165 ng·h/mL.

Question: What about the Cl/F [1, 7] of the same compound?
Answer: The Cl/F was 14.2 ± 2.33 mL/min/kg.

Question: What about the MRT [1, 7] of the same compound?
Answer: Its MRT is 4.5 ± 1.2 h.

Question: What about the Vd/F [1, 7] of the same compound?
Answer: Its Vd/F is 4.4 ± 2.0 L/kg.

Question: And the Half life [1, 8]?
Answer: Its Half life is 3.0[1.5] h.

Question: And the Tmax [1, 8]?
Answer: The Tmax was 1.0[0.33] h.

Question: And the Cmax ([1]; multiple oral doses 120 mg × 3 times/day of andrographolide, plasma T 0–8 h, n = 11, mean ± SD)?
Answer: The Cmax was 237 ± 41.4 ng/mL.

Question: What about the “AUC(0-inf)” value [1, 3] of the same compound?
Answer: Its value is 328 ± 102 ng·h/mL.

Question: And the “AUC(0–24h)” value [1, 3]?
Answer: Its value is 328 ± 102 ng·h/mL.

Question: What about the Cl/F [1, 3] of the same compound?
Answer: Its Cl/F is 18.3 ± 4.5 mL/min/kg.

Question: What about the MRT [1, 3] of the same compound?
Answer: Its MRT is 4.3 ± 0.44 h.

Question: And the Vd/F [1, 3]?
Answer: The Vd/F was 2.1 ± 0.60 L/kg.

Question: What about the Half life [1, 9] of the same compound?
Answer: The Half life was 1.4[0.07] h.

Question: What about the Tmax [1, 9] of the same compound?
Answer: Its Tmax is 1.0[0.33] h.

Question: What about the Cmax ([1]; single oral dose equivalent to 60 mg andrographolide, plasma T 0–24 h, n = 12, mean ± SD) of the same compound?
Answer: Its Cmax is 98.6 ± 40.3 ng/mL.

Question: What about the “AUC(0-inf)” value [1, 4] of the same compound?
Answer: The value was 674 ± 274 ng·h/mL.

Question: And the “AUC(0–24h)” value [1, 4]?
Answer: Its value is 674 ± 274 ng·h/mL.

Question: And the Cl/F [1, 4]?
Answer: The Cl/F was 18.3 ± 6 mL/min/kg.

Question: What about the MRT [1, 4] of the same compound?
Answer: The MRT was 4.1 ± 0.65 h.

Question: What about the Vd/F [1, 4] of the same compound?
Answer: The Vd/F was 2.0 ± 0.69 L/kg.

Question: What about the Half life [1, 10] of the same compound?
Answer: The Half life was 1.2[0.06] h.

Question: What about the Tmax [1, 10] of the same compound?
Answer: The Tmax was 1.5[0.25] h.

Question: And the Cmax ([1]; single oral dose equivalent to 120 mg andrographolide, plasma T 0–24 h, n = 11, mean ± SD)?
Answer: The Cmax was 211 ± 138 ng/mL.

Question: And the Cumulative urine [2, 3]?
Answer: Its Cumulative urine is 70.6 ± 27.6 µg.

Question: And the Cumulative urine [2, 4]?
Answer: Its Cumulative urine is 159 ± 56.8 µg.
